Assays:
C57BL/6 mice = test: Short-term toxicity / dose determination study; assay type: in vivo; conditions: i.p. 3×/week for two weeks, highest dose 2000 mg/Kg
Experimental: Dose Determination Study: Ψ-GSH was injected intraperitoneally and orally in wild type C57BL/6 mice (6-8 week old, 4/group) three times a week for two weeks. The doses of Ψ-GSH employed ranged from 100 mg/kg to 2000 mg/kg. Body weight (twice a week), complete blood count (CBC) analysis and liver, kidney and lung histology was considered to be indicative of toxicity from the drug treatment. Histological sections of tissue were analyzed by a board-certified pathologist at the Masonic Cancer Center-Comparative Pathology Shared Resource, University of Minnesota.

APP/PS1 mice [1] = test: Immunohistochemistry of Aβ plaques in brain; assay type: in vivo
Experimental: (§1) Efficacy Study Design. To determine the effect of intraperitoneal and oral Ψ-GSH treatment, the study was divided in four groups (10 mice/group). 1. APP/PS1 mice-vehicle control, 2. APP/PS1 mice-Ψ-GSH i.p. 500 mg/kg, 3. APP/PS1 mice-Ψ-GSH oral 500 mg/kg, 4. Non-transgenic wild type mice-vehicle control. All the animals in the above-said groups were treated with saline or Ψ-GSH three times a week for 12 weeks, starting at the age of three to four months. Eleven weeks after the start of the treatment, the animals were tested in the Morris water maze, and twelve weeks after the start of the treatment, the animals were sacrificed for histopathological analysis.
Immunohistochemistry. Mice were anesthetized, and their brains were removed, cut sagittaly. Following post-fixation of right hemisphere in Zamboni's fixative (4% paraformaldehyde and 15% picric acid in 0.25 M sodium phosphate, pH 7.5) for 48 h before being cryopreserved in a 30% (wt/vol) sucrose in phosphate-buffered saline solution. Brains were then were embedded in O.C.T. Tissue Tek Compound (Miles Scientific) and were cryosectioned at 10 μm thickness for immunohistochemistry, mounted on Superfrost™ microscope slides (Erie Scientific, Portsmouth N.H.) and stored at […] until their utilization.
The brain sections were stained with a primary antibody against 0-amyloid peptide (Cell signaling, Cat. #2454) at a dilution of 1:200 in PBS. […]

APP/PS1 mice [2] = test: Brain lipid peroxidation (TBARS) assay; assay type: in vivo
Experimental: as §1
Lipid Peroxidation Assay. The levels of lipid peroxidation were quantified by the thiobarbituric acid-reactive substances (TBARS) assay. Brain homogenate was treated with 2 ml of (1:1:1) ratio (TBA) thiobarbituric acid -(TCA) trichloroacetic acid -(HCl) chloridic acid reagent (TBA 0.37%, 0.25 N HCL and 15% TCA) and placed in water bath for 15 min, cooled and centrifuged and then clear supernatant was measured at 535 nm against reference blank. Protein was determined by the BCA protein assay kit. TBARS were normalized to the protein content in each sample and then expressed as percentage of the corresponding values in non-transgenic saline controls.

APP/PS1 mice [3] = test: Brain protein carbonyl determination; assay type: in vivo
Experimental: as §1
Protein Carbonyl Determination. Brains were homogenized in cold buffer (50 mM phosphate, pH 7.0, containing 1 mM EDTA containing protease inhibitors) and centrifuged at 10,000×g for 15 min at 4° C. The supernantent was mixed with 0.5 ml of 10 mM 2,4-dinitrophenylhydrazine (DNPH)/2 M HCL (or 2 M HCl alone for blanks). Samples were placed in a sample holder and incubated in the dark at room temperature for one hour vortexing intermittently. […] The concentration of DNPH was determined at its maximum wavelength (360 nm) and the molar absorption coefficient of 22,000 M^−1 cm^−1 was used to quantify the levels of protein carbonyls. Total protein concentration was determined by BCA protein assay kit (Pierce, Rockford, Ill.). […]

[4] = Non-protein thiols in plasma and brain (DTNB); assay type: in vivo, C57BL/6 mice
Experimental: Detection of Non-Protein Thiols in Plasma and Brain. Wild type C57BL/6 mice at the age of six to eight weeks (4 per group) were treated with Ψ-GSH i.p and orally. Mice were euthanized by overdose of ketamine and xylazine at the desired time-points from the administration of the drug (0, 0.5, 1, 2 and 4 hours after drug administration). Brain and plasma samples were collected. Brains were perfused with ice-cold 0.9% NaCl, and cut sagittally into left and right hemispheres. The right hemisphere was fixed in Zamboni's fixative as described under Immunohistochemistry. The left hemispehere was immediately frozen in liquid nitrogen and utilized in further biochemical analysis. Brain tissue was homogenized in ice-cold buffer (50 mM phosphate, pH 7.0, containing 1 mM EDTA containing protease inhibitors) containing 5% sulfosalicylic acid. After homogenization, samples were centrifuged at 8000×g for 10 min at 4° C. The clear supernatant was transferred to a new tube and used for analysis of free thiol concentration.
Blood was collected in heparin-coated tubes (Fisher, Pittsburgh, Pa.) and immediately centrifuged at 5000×g for 10 min at 4° C. […]
Assay Conditions: 150 μl of Tris.HCl, pH 8.9 (Trizma base, 0.2 M; EDTA 0.02 M)+20 μl of DTNB (1 mg/mL in methanol)+50 μl of supernatant from TCA precipitation. The changes in absorbance were measured at 412 nm after […] incubation in dark at room temperature.

N[C@@H](CNC(=O)N[C@@H](CS)C(=O)NCC(=O)O)C(=O)O [Ψ-GSH, γ-Gla-Cys-Gly-OH]
ALT, AST, ALP, blood urea nitrogen (BUN) and creatinine levels (C57BL/6 mice): Unaffected
Body weights and CBC (C57BL/6 mice): insignificantly affected
Histopathology of lung, liver and kidney tissue vs saline-treated mice (C57BL/6 mice): no significant difference
number and size of Aβ plaques (APP/PS1 mice [1]; i.p.): drastically reduced
Aβ plaques relative to controls (APP/PS1 mice [1]; oral): modest decrease
TBARS levels in brain (WT saline = 100%) (APP/PS1 mice [2]; i.p.): 95.3±5.51%
levels of lipid peroxidation (APP/PS1 mice [2]; oral): unaffected
Protein carbonyls in brain (WT saline = 100%) (APP/PS1 mice [3]; i.p.): 97.8±6.30%
levels of protein carbonylation (APP/PS1 mice [3]; oral): unaffected
plasma thiol level ([4]; oral 500 mg/Kg, over 2 hours): reducing to basal levels
plasma thiol level ([4]; single i.p. 500 mg/Kg, at 4 hours): dropped to basal levels
